Measured values taken from patent publication US6518307B2, “Control of microbial populations in the gastrointestinal tract of animals” (Lynntech, Inc., priority 2000, dated 2003).

How the values were obtained:
bacteria = experiment: In vitro bacterial kill in the presence of interfering compounds found in poultry ingesta; type: cell-based; settings: in the presence of potentially interfering compounds of poultry ingesta
Source text: Organic compounds have been evaluated for biocidal efficacy in the upper GI tract of poultry, including D-limonene. […] Organic acids have also found utility as a drinking water biocide for gut bacteria.

[1] = cited from earlier work
[2] = system: bacteria in the crops of market-age broilers; experiment: Biocidal effect of a drinking water oxidant in the crops of market-age broilers; type: in vivo; settings: dissolved in drinking water
Description: A variety of chemicals have been evaluated for efficacy as a drinking water-based biocide for administration to birds during the period of feed withdrawal. […] It was found, however, that the biocidal effect of this dissolved, short-lived oxidant was minimal in the crops of market-age broilers. This ineffectiveness is thought to be due primarily to the high ozone demand of the ingesta itself, which consumes the majority of the ozone and subsequently prevents delivery of sufficient ozone to the bacteria surfaces.

[3] = in water, alcohol, ether, and sulfuric acid; cited from earlier work
Salmonella enteritidis [4] = experiment: In vitro reduction of Salmonella enteritidis in the presence of autoclaved broiler feed; type: cell-based; settings: 1 h, 37° C.
Description: Another study was performed to determine the bactericidal effects of the same three peracids investigated in the first study. Eleven tubes were filled with 0.5 g of autoclaved broiler feed to which 100 ul of a Salmonella enteritidis culture broth was added. Two of the tubes were additionally filled with 1.9 ml of distilled water and the remaining nine were filled with an additional 1.7 ml of H2O. The peracids were added to the nine tubes to achieve a 0.0125% of each of the three peracids and two subsequent dilutions to achieve 0.00625% and 0.003125% of each. The samples were incubated at 37° C. and vortexed. After 1 h, the samples were plated and diluted to yield a plate count of 10^4 and 10^3 cfu/ml

Salmonella enteritidis [5] = experiment: Reduction of Salmonella in broiler crops under different consumption pressures (Example 7); type: in vivo; settings: 0.003125% (30 ppm) in drinking water
Description: Another experiment was designed to further characterize the disinfection effect of perlactic acids when different consumption pressures were placed on 8 week-old broilers. All of the birds had the feed removed 8 hours prior to slaughter. Perlactic acid was added at 0.003125% (30 ppm) to the drinking water for the last 8 hours of the study (feed withdrawal period). The first treatment group had water removed 8 hours prior to the 8 h feed withdrawal (PL 8-8-8) and the second treatment group had only feed withdrawal/perlactic treatment (PL 8—8). The last group had access to the peracid in their drinking water 12 hours prior to slaughter and the feed taken up 4 hours after that yielding a final feed withdrawal time of 8 h (PL 12-8). At the conclusion of the study, the crops were processed microbiologically similar to the methods described for FIG. 3.

Salmonella enteritidis [6] = experiment: Reduction of Salmonella in broiler crops, peracid in drinking water during 8 h feed withdrawal (Example 6); type: in vivo; settings: 8 h exposure, broilers
Description: To determine the biocidal effect of perlactic and percitric on Salmonella in the upper GI tract (crops) of broiler chickens, peracid solutions were added to the drinkers such that the concentration of perlactic was 0.006 or 0.003% and percitric was at a 0.03% concentration. The birds were deprived of water for 8 h prior to an 8 h feed withdrawal period and allowed to drink the water for 8 h. Prior to reintroduction of the water with the test compounds, the birds were gavaged with 1 ml of 10^8 Salmonella. After the 8 h test consumption, the birds were terminated, the crops removed aseptically, stomached for 30 seconds, diluted and plated onto BGA with NO/NA.

Salmonella enteritidis [7] = experiment: Reduction of Salmonella in crops of SE challenged broilers, perlactic acid vs lactic acid and hydrogen peroxide (Example 8); type: in vivo; settings: 30 ppm in drinking water for 8 hours
Description: In the final broiler study, forty-five 8-week old broilers were divided up into 3 groups with […]. Upon feed withdrawal, all birds were gavaged with 1 ml of a 1×10^8 challenge of Salmonella enteritidis. At this time, all feed was removed and the drinking water treatments administered. […] All groups received the same withdrawal time of 8 hours. At the time of kill, the crops were aseptically collected after cervical dislocation. The crops were added to […] bags containing 10 ml of PBS. The bags were stomached for 30 sec where upon 250 μl were removed and added to 2.25 ml of PBS. […] Groups 2 and 3 were directly plated from the […] bags by taking 100 μl from the bag and spread plating it onto BGA plates. These plates were incubated for 24 hrs at 37° C. The plates were counted for CFUs and log 10 reductions. After the bags had been used for dilution purposes, 9.0 ml of tetrathionate broth was added for enrichment purposes. These bags were incubated along with the plates. 24 hours later, 1 loopful of the bag contents were streaked onto BGA plates for +/- observations.

[8] = all concentrations (0.0125%, 0.00625%, 0.003125%)
[9] = highest concentration (0.0125%)

C=C(C)[C@H]1CC=C(C)CC1 [D-limonene]
in vitro antibacterial effect (bacteria): excellent bacterial kills

OO [HP, hydrogen peroxide, reference compound]
loss of active ingredients ([1]; 30 to 90% solution): less than 1 % per year

O=[O+][O-] [Ozone]
biocidal effect in the crops [2]: minimal

CC(=O)O [acetic acid]
in vitro antibacterial effect (bacteria): excellent in vitro antibacterial capability

CC(=O)OO [peracetic acid]
time to lose half its strength through hydrolysis ([1]; 1% solution): 6 days | solubility [3]: freely soluble | biocidal effect on Salmonella enteritidis (Salmonella enteritidis [4]; [8]): poor biocide

CC(O)C(=O)OO (centres unmarked) [perlactic acid]
effectiveness in reducing Salmonella in crops compared to FIG. 3 (Salmonella enteritidis [5]; same concentrate used 1 week later): diminished | influence of increased exposure time or water deprivation prior to feed withdrawal on biocidal effect (Salmonella enteritidis [5]; PL 8-8-8, PL 8-8, PL 12-8): does not increase the biocidal effect | biocidal effect on Salmonella enteritidis (Salmonella enteritidis [4]; [8]): showed a disinfection efficacy at all concentrations | biocidal effect on Salmonella enteritidis (Salmonella enteritidis [4]; [9]): eliminated the Salmonella to levels that fell below the detection limit of this assay | log reduction of Salmonella in the crop (Salmonella enteritidis [6]; 0.003% in drinking water): two | reduction of Salmonella in the crop (Salmonella enteritidis [6]; 0.006 or 0.003% in drinking water): multiple log reduction | reduction in Salmonella in the crop as compared to the control (Salmonella enteritidis [7]): 2.71 Log10

percitric acid
biocidal effect on Salmonella enteritidis (Salmonella enteritidis [4]; diluted samples (0.00625%, 0.003125%)): not as efficient | biocidal effect on Salmonella enteritidis (Salmonella enteritidis [4]; [9]): significant biocidal effects | reduction of Salmonella in the crop (Salmonella enteritidis [6]; 0.03% in drinking water): multiple log reduction
